# Data reported in paper PMC3306499 (ACS Chemical Biology, 2012).
# Where a name gives a salt, the structure may show the parent alone. Read-outs that look alike come from different tables or passages of the source.
# Experiments:
# [1] = biological target: A3G-ssDNA complex (Homo sapiens, UniProt Q9HC16); experiment: EMSA of A3G-ssDNA complex formation; format: binding; conditions: 0.64 μM A3G, 0.08 μM ssDNA, 50 μM compound, dose response 2, 5, 10 μM
# [2] = biological target: human A3G (APOBEC3G) (Homo sapiens, UniProt Q9HC16); experiment: fluorescence-based ssDNA cytosine deaminase assay, A3G; format: biochemical
# Sequence of human A3G (APOBEC3G) (Q9HC16 whole entry): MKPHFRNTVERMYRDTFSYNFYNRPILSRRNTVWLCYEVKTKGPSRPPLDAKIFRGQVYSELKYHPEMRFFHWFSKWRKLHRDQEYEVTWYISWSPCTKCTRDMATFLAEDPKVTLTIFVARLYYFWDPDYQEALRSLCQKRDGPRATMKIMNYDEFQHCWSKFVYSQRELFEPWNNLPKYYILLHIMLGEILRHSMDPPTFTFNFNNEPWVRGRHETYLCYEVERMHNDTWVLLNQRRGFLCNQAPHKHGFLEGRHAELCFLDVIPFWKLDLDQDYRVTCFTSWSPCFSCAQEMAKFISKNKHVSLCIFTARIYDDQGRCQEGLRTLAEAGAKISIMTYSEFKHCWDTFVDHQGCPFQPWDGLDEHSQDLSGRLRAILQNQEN
# [3] = biological target: human A3A (APOBEC3A) (Homo sapiens, UniProt P31941); experiment: fluorescence-based ssDNA cytosine deaminase assay, A3A; format: biochemical
# Sequence of human A3A (APOBEC3A) (P31941 whole entry): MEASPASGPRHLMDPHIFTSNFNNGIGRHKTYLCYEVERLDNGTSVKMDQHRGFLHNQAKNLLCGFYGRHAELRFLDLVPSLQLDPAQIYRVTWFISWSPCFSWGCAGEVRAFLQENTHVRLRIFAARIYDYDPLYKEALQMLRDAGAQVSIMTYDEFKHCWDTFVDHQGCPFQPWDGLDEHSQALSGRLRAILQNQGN
# [4] = biological target: E. coli uracil DNA glycosylase (UDG) (Escherichia coli, UniProt P12295); experiment: UDG assay; format: biochemical
# Sequence of E. coli uracil DNA glycosylase (UDG) (P12295 whole entry): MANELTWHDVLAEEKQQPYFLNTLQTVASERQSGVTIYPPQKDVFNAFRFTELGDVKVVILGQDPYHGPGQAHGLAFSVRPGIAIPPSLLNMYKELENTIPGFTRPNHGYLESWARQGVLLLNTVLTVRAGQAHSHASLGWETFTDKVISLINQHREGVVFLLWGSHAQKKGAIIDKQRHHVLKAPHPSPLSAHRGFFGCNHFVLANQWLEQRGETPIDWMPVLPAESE
# [5] = cited from earlier work
# [6] = biological target: HIV-1 RNase H (Human immunodeficiency virus type 1 group M subtype B, UniProt P04585); experiment: HIV-1 RNase H inhibition assay; format: biochemical
# [7] = biological target: HIV-1 integrase (Human immunodeficiency virus type 1 group M subtype B, UniProt P04585); experiment: concerted HIV-1 integration assay; format: biochemical
# [8] = test system: A3A-loop 6 (C321 loop of A3G swapped into A3A); experiment: deaminase assay with A3A-loop 6 swap mutant; format: biochemical, human; conditions: 50 μM compound
# [9] = biological target: HIV RNase H; conditions: read-out: IC50 Values RNase H; published value; cited from earlier work
# [10] = read-out: IC50 Values A3G, dose response, purified full-length A3G-mycHis
# [11] = read-out: IC50 Values A3A, dose response, purified A3A-mycHis
# [12] = read-out: IC50 Values RNase H, A3G inhibitors, this study
# [13] = read-out: IC50 Values UDG, no deaminase, uracil ssDNA substrate
# Sequence of A3G-ssDNA complex (Q9HC16 whole entry, one chain of several): as the sequence (Q9HC16 whole entry) above
compound,measurement,setting,value
"CN(N=O)c1cc(O)ccc1O [MN10, Dephostatin]",inhibition of A3G's ssDNA binding activity (A3G-ssDNA complex formation),[1],only exceptions
same,IC50,[2],0.43 µM
same,IC50,[3],150 µM
same,IC50,[4],> 200 µM
same,stability,[5],too unstable for most biological applications
"O=C(O)Cc1ccc(O)c(O)c1 [MN12, 3,4-Dihydroxyphenylacetic acid]",IC50,[2],19 µM
same,IC50,[3],> 200 µM
same,IC50,[4],> 200 µM
"CCCN1CCc2cccc3c2[C@H]1Cc1ccc(O)c(O)c1-3 [MN14, R(−)-Propylnorapomorphine hydrochloride]",IC50,[2]; [10],6.4 µM
same,IC50,[3]; [11],> 200 µM
"CN1CCc2cc(O)cc3c2[C@H]1Cc1ccc(O)c(O)c1-3 [MN16, R(−)-2,10,11-Trihydroxyaporphine hydrobromide]",IC50,[6]; [12],> 25 µM
same,IC50,[2]; [10],1.7 µM
same,IC50,[3]; [11],> 200 µM
same,IC50,[4]; [13],> 200 µM
"CCCN1CCc2cc(O)cc3c2[C@H]1Cc1ccc(O)c(O)c1-3 [MN17, R(−)-2,10,11-Trihydroxy-N-propylnoraporphine hydrobromide hydrate]",IC50,[2]; [10],13 µM
same,IC50,[3]; [11],> 200 µM
"Oc1ccc(O)cc1 [MN21, Hydroquinone]",IC50,[3],> 200 µM
"Oc1ccc(Cn2cc[nH]c2=S)cc1 [MN22, 1-(4-Hydroxybenzyl)imidazole-2-thio]",IC50,[3]; [11],> 200 µM
same,IC50,[4]; [13],> 200 µM
"O=c1cc(O)cc(/C=C/c2ccc(O)c(O)c2)o1 [MN24, Hispidin]",inhibitory activity against RNase H (in words),[6],modest micromolar inhibitory activity
same,IC50,[2],2 µM
same,IC50,[3],> 200 µM
same,IC50,[7],> 25 µM
same,IC50,[4],> 200 µM
"CN[C@@H](C)[C@H](O)c1ccccc1 [MN25, (1R,2S)-(−)-Ephedrine]",IC50,[2]; [10],1.3 µM
same,IC50,[3]; [11],54 µM
"OC[C@H]1O[C@H]([S-])[C@H](O)[C@@H](O)[C@@H]1O.[Au+] [MN26, Aurothioglucose hydrate]",IC50,[2]; [10],0.36 µM
same,IC50,[3]; [11],> 200 µM
same,IC50,[4]; [13],> 200 µM
"O=c1c(O)c(-c2cc(O)c(O)c(O)c2)oc2cc(O)cc(O)c12 [MN27, Myricetin]",IC50,[2],3.4 µM
same,inhibition of A3G catalytic activity (in words),[2],inhibit A3G catalytic activity
same,inhibition of A3A (in words),[3],inhibit A3A
same,IC50,[4],> 200 µM
"CC(Cc1ccc(O)c(O)c1)C(C)Cc1ccc(O)c(O)c1 (stereo not drawn) [MN31, Nordihydroguaiaretic acid]",IC50,[2]; [10],8.8 µM
same,IC50,[3]; [11],> 200 µM
"Oc1cc(O)cc(/C=C/c2ccc(O)c(O)c2)c1 [MN32, Piceatannol]",IC50,[6],0.39 µM
same,IC50,[2],1.8 µM
same,IC50,[3],200 µM
same,IC50,[7],> 25 µM
same,inhibition of A3A-loop 6 deaminase activity,[8],very little inhibition
same,IC50,[4],> 200 µM
"Cc1nc(N=Nc2cc(S(=O)(=O)O)c3cc([N+](=O)[O-])cc(S(=O)(=O)O)c3c2)c(COP(=O)(O)O)c(C=O)c1O [MN33, PPNDS tetrasodium]",IC50,[2]; [10],5.6 µM
same,IC50,[3]; [11],3.3 µM
"CN=c1nc(-c2ccccc2)n(-c2ccccc2)s1 [MN34, SCH-202676 hydrobromide]",IC50,[2]; [10],29 µM
same,IC50,[3]; [11],310 µM
same,IC50,[4]; [13],> 200 µM
"Br.Oc1ccc(C2CNCc3sccc32)cc1O (stereo not drawn) [MN35, SKF-89626 hydrobromide]",inhibition of A3G's ssDNA binding activity (A3G-ssDNA complex formation),[1],only exceptions
same,inhibitory activity against RNase H (in words),[6],modest micromolar inhibitory activity
same,IC50,[6]; [12],2.2 µM
same,IC50,[2]; [10],1.3 µM
same,IC50,[3]; [11],> 200 µM
same,IC50,[4]; [13],> 200 µM
"O=C(O)[C@]1(O)C[C@@H](O)[C@@H](O)[C@H](O)C1 [Quinic Acid, reference compound]",IC50,[2],> 100 µM
same,inhibition of A3G catalytic activity (in words),[2],no effect
"CC(C)c1ccc(O)c(=O)c(O)c1 [β-Thujaplicinol, reference compound]",IC50,[2],> 100 µM
same,IC50,[9],0.21 µM
Manicol [reference compound],IC50,[2]; [10],> 100 µM
same,IC50,[9],0.6 µM
R(−)-N-Allylnorapomorphine hydrobromide [MN11],IC50,[2]; [10],2.9 µM
same,IC50,[3]; [11],> 200 µM
